Results on three compounds are retold here after patent publication US20070259893A1, “Pyrazolopyrimidines” (BAYER CROPSCIENCE AKTIENGESELLSCHAFT, priority 2003, published 2007).

SMILES strings stand for the structures.

The nature of data set [1]: logP by HPLC. The class given is physicochemical.
In data set [2] the test system is Botrytis cinerea. The data set is described as follows: Botrytis test (bean)/protective. The format is in vivo. Conditions: bean plants, protective spray, application rate 500 g/ha, evaluated 2 days after inoculation. How it is done:
Botrytis Test (Bean)/Protective
Solvents: 24.5 parts by weight of acetone
• 24.5 parts by weight of dimethylacetamide Emulsifier: 1.0 part by weight of alkylaryl polyglycol ether
To produce a suitable preparation of active compound, 1 part by weight of active compound is mixed with the stated amount of solvents and emulsifier, and the concentrate is diluted with water to the desired concentration.
To test for protective activity, young plants are sprayed with the preparation of active compound at the stated application rate. After the spray coating has dried on, 2 small pieces of agar colonized by Botrytis cinerea are placed onto each leaf. The inoculated plants are placed in a dark chamber at about 20° C. and 100% relative atmospheric humidity.
The size of the infected areas on the leaves is evaluated 2 days after the inoculation. 0% means an efficacy which corresponds to that of the control, whereas an efficacy of 100% means that no infection is observed.

For `CC(Nc1c(-c2ccc(F)cc2Cl)c(Cl)nc2c(C#N)cnn12)C(C)(C)C` (stereo not shown) [Example 4], in data set [1], the chromatographic logP is 4.92. Regarding `CC1CCN(c2c(-c3ccc(F)cc3Cl)c(Cl)nc3c(C(=O)C(F)(F)F)cnn23)CC1` [Example 1, 3-trifluoroacetyl-5-chloro-6-(2-chloro-4-fluorophenyl)-7-(4-methylpiperidino)-pyrazolo[1,5-a]pyrimidine], in data set [2], the efficacy entry is “more than 90%”. The compound further registered a chromatographic logP in data set [1] of 5.44. In data set [1], `CC(C)C(C)Nc1c(-c2ccc(F)cc2Cl)c(Cl)nc2c(C(=O)C(F)(F)F)cnn12` (stereo not shown) [Example 2] gave a chromatographic logP of 5.08.

For orientation: chromatographic logP means lipophilicity estimated from chromatographic retention. Lower therefore signals lower lipophilicity.
